Laboratory results taken from patent US12415145B2, “Compositions that contain lipophilic plant material and surfactant, and related methods” (priority 2019, dated 2025).

What was measured:
[1] = Solubility in mineral oil; details: under certain conditions
From the text: (§1) Another example of a processing step is a step of combining a liquid that contains target compound with anti-solvent. When a target compound is contained in a liquid, e.g., an organic solvent or water (together, “solvents”), an anti-solvent may be used to reduce the capacity of the solvent to contain the target compound, thereby supersaturating the solvent with the target compound. […] The use of an antisolvent can increase the efficiency of purification of a target compound by increasing the saturation of one or more target compounds in a solvent to which the target compounds are added or present. The antisolvent occupies the binding potential of a primary solvent for a target compound, thereby reducing the ability of the primary solvent to contain (e.g., dissolve) the target compound.

[2] = Thermal stability (decarboxylation); type: physicochemical; details: saturated solution of CBDA in Met10u
Protocol: A saturated solution of CBDA in Met10u is prepared at 30C or preferably at 60C or higher, up to 100C or higher but below 130C. At a temperatures that is at least 130C, CBDA begins to lose its carboxylic moiety (decarboxylation) and become CBD. At temperatures above 130C CBD, not CBDA, could be separated if the desired end product is CBD.

Solubility in water = type: physicochemical
From the text: The solubility of cannabinoid target compounds in water can be substantially affected by pH and by temperature. […] At a temperature of 70 degrees Celsius or higher, and pH of 10 or higher, the solubility of CBDA in water is over 20 milligrams per milliliter. Conversely, at a temperature of 4 degrees Celsius or lower and pH 4 of or lower, the solubility of CBDA in water is below 20 micrograms per milliliter. Consequently, a process of washing a plant extract composition that contains CBDA with acidified water having a low temperature can be effective to remove hydrophilic components from the plant extract composition, without removing much CBDA from the plant extract composition.

[3] = Solubility in high-KB amide surfactant (DMDA / Met10u)
From the text: as §1
As an alternative to an “oiling-out” technique followed by a crystallization step, target compound dissolved in an aqueous solution (at high temperature and alkaline pH) can be separated from the aqueous solution by causing the target compound to directly form a separate solid phase such as crystals within the solution, i.e., to “crystallize out” of the solution, without an “oiling-out” step. Depending on the composition of the aqueous solution, e.g., if the aqueous solution contains a sufficiently high concentration and purity of dissolved target compound, the target compound may be caused to form crystals directly by reducing pH and temperature of the aqueous solution. […] A method as described may include adding surfactant (e.g., ninol CAA) or an oil or a solvent or additive that encourages crystallization or alternatively, oiling out.

Row | SMILES | solubility in mineral oil [1] | temperature at which CBDA begins to lose its carboxylic moiety (decarboxylation) and become CBD [2] | solubility of CBDA in water (Solubility in water; temperature of 4 degrees Celsius or lower, pH 4 or lower) | solubility of CBDA in water (Solubility in water; temperature of 70 degrees Celsius or higher, pH of 10 or higher) | solubility of CBDA in Met10u ([3]; at 60C) | solubility in DMDA ([3]; at 70C) | solubility of CBDA in Met10u ([3]; at OC) | fraction of dissolved water in the high KB surfactant ([3]; water dissolved in surfactant of plant extract composition)
1 | C=C(C)[C@@H]1CCC(C)=C[C@H]1c1c(O)cc(CCCCC)c(C(=O)O)c1O [CBDA] | about 6 mg/ml | at least 130 C | below 20 micrograms per milliliter | over 20 milligrams per milliliter | 100% | over 1000 mg/ml | 1% | –
2 | C=CCCCCCCCC(=O)N(C)C [STEPOSOL™ MET-10U, N, N-dimethyl 9-decenamide] | – | – | – | – | – | – | – | 15%
